Data from patent US8980830B2 (priority 2007, dated 2015).
Where two headings read alike, the source gives them in different places. One block for each compound: values may come before it. Bridge positions count the residues as written; N and C are the ends. Square brackets hold non-standard residues; d marks the D form. Ends that are not written are not given here. Peptide text beside a SMILES is read from it. * marks the point of attachment. ξ: configuration not given here. X1 = CC(C)CCC[C@@H](C)[C@H]1CC[C@H]2[C@@H]3CC=C4C[C@@H](OC(=O)CCOCCOCCOCCOCCOCCOCCOCCOCCOCCOCCOCCOCCNC(=O)CSCCC(=O)*)CC[C@]4(C)[C@H]3CC[C@]12C; Abu(4-SO3H) = N[C@@H](CCS(=O)(=O)O)C(=O)O; Palmitoyl = CCCCCCCCCCCCCCCC(=O)*; PhLac = O=C(O)[C@@H](O)Cc1ccccc1; ξPhLac = O=C(O)C(O)Cc1ccccc1

Legend:
GLP-1 Receptor = GLP-1 Receptor (Homo sapiens, UniProt P43220); test: Functional assay, cAMP induction (luciferase reporter, HEK293) at GLP-1 receptor; format: cell-based; details: for EC50: GLP-1 agonism EC50 (nM)
Sequence of GLP-1 Receptor (P43220 24-463): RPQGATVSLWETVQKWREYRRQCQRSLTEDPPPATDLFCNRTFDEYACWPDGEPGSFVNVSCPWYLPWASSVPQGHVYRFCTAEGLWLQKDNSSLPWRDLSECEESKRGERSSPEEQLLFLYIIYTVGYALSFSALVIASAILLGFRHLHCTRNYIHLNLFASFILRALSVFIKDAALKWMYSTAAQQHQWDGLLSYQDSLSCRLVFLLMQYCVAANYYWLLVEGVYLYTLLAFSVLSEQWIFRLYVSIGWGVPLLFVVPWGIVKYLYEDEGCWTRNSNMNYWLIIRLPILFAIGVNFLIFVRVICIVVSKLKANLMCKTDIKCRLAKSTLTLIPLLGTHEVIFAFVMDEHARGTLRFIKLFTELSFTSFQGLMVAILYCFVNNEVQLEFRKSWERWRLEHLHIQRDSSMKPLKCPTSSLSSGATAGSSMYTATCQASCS

Glucagon Receptor = Glucagon Receptor (Homo sapiens, UniProt P47871); test: cAMP inhibition: antagonism of glucagon-induced cAMP at glucagon receptor; format: cell-based; set-up: expressed in transfected cells; host or cells: HEK293
Sequence of Glucagon Receptor (P47871 26-477): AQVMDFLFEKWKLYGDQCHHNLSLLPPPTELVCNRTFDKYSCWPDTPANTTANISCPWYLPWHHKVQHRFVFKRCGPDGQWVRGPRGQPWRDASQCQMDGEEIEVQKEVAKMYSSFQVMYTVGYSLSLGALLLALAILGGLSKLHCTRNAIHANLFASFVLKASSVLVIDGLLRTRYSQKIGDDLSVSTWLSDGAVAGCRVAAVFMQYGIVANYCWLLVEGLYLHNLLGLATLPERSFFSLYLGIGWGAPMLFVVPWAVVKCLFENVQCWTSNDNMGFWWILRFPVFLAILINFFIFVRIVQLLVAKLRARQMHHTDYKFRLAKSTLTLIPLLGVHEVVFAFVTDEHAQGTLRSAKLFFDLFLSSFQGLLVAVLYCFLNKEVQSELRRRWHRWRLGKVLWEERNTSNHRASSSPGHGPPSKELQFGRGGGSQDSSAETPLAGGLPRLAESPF

Compound: CSCC[C@H](NC(=O)[C@H](CC(C)C)NC(=O)[C@H](Cc1c[nH]c2ccccc12)NC(=O)[C@H](CCC(N)=O)NC(=O)[C@@H](NC(=O)[C@H](Cc1ccccc1)NC(=O)[C@H](CC(=O)O)NC(=O)[C@@H]1CCCCNC(=O)CC[C@H](NC(=O)[C@H](CC(=O)O)NC(=O)[C@H](CC(C)C)NC(=O)[C@H](Cc2ccc(O)cc2)NC(=O)[C@H](CCCCN)NC(=O)[C@H](CO)NC(=O)[C@H](CCCCNC(=O)CCSCC(=O)NCCOCCOCCOCCOCCOCCOCCOCCOCCOCCOCCOCCOCCC(=O)O[C@H]2CC[C@@]3(C)C(=CC[C@H]4[C@@H]5CC[C@H]([C@H](C)CCCC(C)C)[C@@]5(C)CC[C@@H]43)C2)NC(=O)[C@H](CC(=O)O)NC(=O)[C@H](CO)NC(=O)[C@@H](NC(=O)[C@@H](O)Cc2ccccc2)[C@@H](C)O)C(=O)N[C@@H](CCCNC(=N)N)C(=O)N[C@@H](CCCNC(=N)N)C(=O)N[C@@H](C)C(=O)N1)C(C)C)C(=O)N[C@@H](CC(=O)O)C(=O)N[C@H](C(N)=O)[C@@H](C)O [K10-chol G(6-29), [PLA6, K10(COCH2CH2S-Chol), E16K20(lactam), D28]G(6-29) amide] (H-[PhLac]TSDK(X1)SKYLDERRAKDFVQWLMDT-NH2; lactam 11-15)
EC50 (GLP-1 Receptor; Table 23, standard deviation in ( )): 35.3 nM

Compound: CSCC[C@H](NC(=O)[C@H](CC(C)C)NC(=O)[C@H](Cc1c[nH]c2ccccc12)NC(=O)[C@H](CCC(N)=O)NC(=O)[C@@H](NC(=O)[C@H](Cc1ccccc1)NC(=O)[C@H](CC(=O)O)NC(=O)[C@H](CCC(N)=O)NC(=O)[C@H](C)NC(=O)[C@H](CCCNC(=N)N)NC(=O)[C@H](CCCNC(=N)N)NC(=O)[C@H](CO)NC(=O)[C@H](CC(=O)O)NC(=O)[C@H](CC(C)C)NC(=O)[C@H](Cc1ccc(O)cc1)NC(=O)[C@H](CCCCN)NC(=O)[C@H](CO)NC(=O)[C@H](Cc1ccc(O)cc1)NC(=O)[C@H](CCS(=O)(=O)O)NC(=O)[C@H](CO)NC(=O)[C@@H](NC(=O)[C@@H](N)Cc1ccccc1)[C@@H](C)O)C(C)C)C(=O)N[C@@H](CC(N)=O)C(=O)N[C@H](C(N)=O)[C@@H](C)O [[hCys^9(SO3H)]Glucagon(aa6-29)-NH2] (H-FTS[Abu(4-SO3H)]YSKYLDSRRAQDFVQWLMNT-NH2; N-terminus assumed)
cAMP pA2 (Glucagon Receptor; Table 9): 7.16 ± 0.51

Compound: FTSEYSKYLDERRAQDFVQWLMNTGPSSGAPPPS-NH2 [E9, K12, E16]
IC50 (Glucagon Receptor; Glucagon antagonism IC50 (nM, inhibit 0.2-0.8 nM glucagon), Table 16, combined results of three assays): 762 ± 127 nM

Compound: FTSKYSKYLDSRRAQDFVQWLMNT-NH2 [[Lys^9]Glucagon(aa6-29)-NH2]
cAMP pA2 (Glucagon Receptor): 6.58 ± 0.60

More lines, now with the values ahead:

GLP-1 agonism EC50(nM) (GLP-1 Receptor; Table 18): No agonism
Compound: CC[C@H](C)[C@H](NC(=O)[C@H](Cc1ccccc1)NC(=O)[C@H](CC(=O)O)NC(=O)[C@H](CCCCN)NC(=O)[C@H](C)NC(=O)[C@H](C)NC(=O)[C@H](CCC(N)=O)NC(=O)[C@@H]1CCC(=O)NCCCC[C@H](NC(=O)[C@H](CO)NC(=O)[C@H](Cc2ccc(O)cc2)NC(=O)[C@H](CC(=O)O)NC(=O)[C@H](CO)NC(=O)[C@@H](NC(=O)C(O)Cc2ccccc2)[C@@H](C)O)C(=O)N[C@@H](Cc2ccc(O)cc2)C(=O)N[C@@H](CC(C)C)C(=O)N[C@@H](CC(=O)O)C(=O)N1)C(=O)N[C@@H](C)C(=O)N[C@@H](Cc1c[nH]c2ccccc12)C(=O)N[C@@H](CC(C)C)C(=O)N[C@@H](CCSC)C(=O)N[C@@H](CC(=O)O)C(=O)N[C@H](C(N)=O)[C@@H](C)O (stereo partly drawn) [[PLA6, K12E16(lactam), GLP(23-32)]G(6-29)] (H-[ξPhLac]TSDYSKYLDEQAAKDFIAWLMDT-NH2; lactam 7-11)

EC50 (GLP-1 Receptor; Table 17): 289 ± 149 nM
Compound: CSCC[C@@H]1NC(=O)[C@H](CC(C)C)NC(=O)[C@H](Cc2c[nH]c3ccccc23)NC(=O)[C@@H](NC(=O)[C@@H](NC(=O)[C@H](Cc2ccccc2)NC(=O)[C@H](CC(=O)O)NC(=O)[C@H](CCC(N)=O)NC(=O)[C@H](C)NC(=O)[C@H](CCCNC(=N)N)NC(=O)[C@H](CCCNC(=N)N)NC(=O)[C@H](CCC(=O)O)NC(=O)[C@H](CC(=O)O)NC(=O)[C@H](CC(C)C)NC(=O)[C@H](Cc2ccc(O)cc2)NC(=O)[C@H](CCCCN)NC(=O)[C@H](CO)NC(=O)[C@H](Cc2ccc(O)cc2)NC(=O)[C@H](CC(=O)O)NC(=O)[C@H](CO)NC(=O)[C@@H](NC(=O)[C@@H](O)Cc2ccccc2)[C@@H](C)O)C(C)C)CCC(=O)NCCCC[C@@H](C(=O)N[C@H](C(N)=O)[C@@H](C)O)NC1=O (H-[PhLac]TSDYSKYLDERRAQDFVEWLMKT-NH2; lactam 19-23)

EC50 (GLP-1 Receptor; Table 22): 45.7 ± 13.8 nM
Compound: CCCCCCCCCCCCCCCC(=O)O[C@@H](Cc1ccccc1)C(=O)N[C@H](C(=O)N[C@@H](CO)C(=O)N[C@@H](CC(=O)O)C(=O)N[C@@H](Cc1ccc(O)cc1)C(=O)N[C@@H](CO)C(=O)N[C@@H](CCCCN)C(=O)N[C@@H](Cc1ccc(O)cc1)C(=O)N[C@@H](CC(C)C)C(=O)N[C@@H](CC(=O)O)C(=O)N[C@H]1CCC(=O)NCCCC[C@@H](C(=O)N[C@@H](CC(=O)O)C(=O)N[C@@H](Cc2ccccc2)C(=O)N[C@H](C(=O)N[C@@H](CCC(N)=O)C(=O)N[C@@H](Cc2c[nH]c3ccccc23)C(=O)N[C@@H](CC(C)C)C(=O)N[C@@H](CCSC)C(=O)N[C@@H](CC(=O)O)C(=O)N[C@H](C(N)=O)[C@@H](C)O)C(C)C)NC(=O)[C@H](C)NC(=O)[C@H](CCCNC(=N)N)NC(=O)[C@H](CCCNC(=N)N)NC1=O)[C@@H](C)O [[C16FA-O-PLA6, E16K20(lactam),D28]G(6-29)] (Palmitoyl-[PhLac]TSDYSKYLDERRAKDFVQWLMDT-NH2; lactam 11-15)

EC50 (GLP-1 Receptor; Table 24): 18 ± 2.14 nM
Compound: CSCC[C@H](NC(=O)[C@H](CC(C)C)NC(=O)[C@H](Cc1c[nH]c2ccccc12)NC(=O)[C@H](CCC(N)=O)NC(=O)[C@@H](NC(=O)[C@H](Cc1ccccc1)NC(=O)[C@H](CC(=O)O)NC(=O)[C@@H]1CCCCNC(=O)CC[C@H](NC(=O)[C@H](CC(=O)O)NC(=O)[C@H](CC(C)C)NC(=O)[C@H](Cc2ccc(O)cc2)NC(=O)[C@H](CCCCN)NC(=O)[C@H](CO)NC(=O)[C@H](Cc2ccc(O)cc2)NC(=O)[C@H](CC(=O)O)NC(=O)[C@H](CO)NC(=O)[C@@H](NC(=O)[C@H](Cc2ccccc2)OC(=O)[C@@H](NC(=O)CNC(=O)[C@H](CCC(=O)O)NC(=O)[C@H](C)N)[C@@H](C)O)[C@@H](C)O)C(=O)N[C@@H](CCCNC(=N)N)C(=O)N[C@@H](CCCNC(=N)N)C(=O)N[C@@H](C)C(=O)N1)C(C)C)C(=O)N[C@@H](CC(=O)O)C(=O)N[C@H](C(N)=O)[C@@H](C)O [[A2E3-O-PLA6, D9, E16K20(Lactam), D28] G(2-29)] (H-AEGT[PhLac]TSDYSKYLDERRAKDFVQWLMDT-NH2; lactam 15-19; N-terminus assumed)

glucagon antagonism, in words (Glucagon Receptor): some level of antagonism
Compound: CC(C)C[C@H](NC(=O)[C@H](Cc1ccc(O)cc1)NC(=O)[C@H](CCCCN)NC(=O)[C@H](CO)NC(=O)[C@H](Cc1ccc(O)cc1)NC(=O)[C@H](CCS(=O)(=O)O)NC(=O)[C@H](CO)NC(=O)[C@@H](NC(=O)[C@H](Cc1ccccc1)NC(=O)[C@@H](NC(=O)[C@H](CC(C)C)NC(=O)[C@H](CCC(N)=O)NC(=O)[C@@H](N)CO)[C@@H](C)O)[C@@H](C)O)C(=O)N[C@@H](CC(=O)O)C(=O)N[C@@H](CO)C(=O)N[C@@H](CCCNC(=N)N)C(=O)N[C@@H](CCCNC(=N)N)C(=O)N[C@@H](C)C(=O)N[C@@H](CCC(N)=O)C(=O)N[C@@H](CC(=O)O)C(=O)N[C@@H](Cc1ccccc1)C(=O)N[C@H](C(=O)N[C@@H](CCC(N)=O)C(=O)N[C@@H](Cc1ccccc1)C(=O)N[C@@H](CC(C)C)C(=O)N[C@@H](CC(C)C)C(=O)N[C@@H](CC(N)=O)C(=O)N[C@H](C(N)=O)[C@@H](C)O)C(C)C [[desHis^1, Leu^4, hCys^9(SO3−), Phe^25, Leu^27] Glucagon-NH2] (H-SQLTFTS[Abu(4-SO3H)]YSKYLDSRRAQDFVQFLLNT-NH2; N-terminus assumed)
